These molecules were tested on AGS cells (KRAS^G12D) (assay: Detection of cell proliferation in vitro by MTT/MTS method (cell activity experiment)). Conditions: Homo sapiens, AGS, 72 h, AGS cells; MTT/MTS; 3 days of drug treatment; read-out: AGS IC50.
Type: cell-based
Summary of the method: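 After 3-day compound exposure (final DMSO 0.5%), viability of AGS (KRAS G12D) cells, plated 1000/well one day before dosing, was measured at 490 nm following 4 h MTT or MTS incubation. IC50 was fitted from dose–effect curves relative to DMSO-treated wells.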

Row | Structure (SMILES) | IC50 [nM]
1 | CC1CCCc2cc(O)cc(-c3c(-c4cn[nH]c4)cc4c(N5C[C@H]6CC[C@@H](C5)N6)nc(OC[C@@]56CCCN5C[C@H](F)C6)nc4c3F)c21 (stereo partly drawn) [Example 376, 4-(4-((1R,5S)-3,8-diazabicyclo[3.2.1]octan-3-yl)-8-fluoro-2-(((2R,7aS)-2-fluorotetrahydro-1H-pyrrolizin-7a(5H)-yl)methoxy)-6-(1H-pyrazol-4-yl)quinazolin-7-yl)-5-methyl-5,6,7,8-tetrahydronaphthalen-2-ol] | 100
2 | C#Cc1c(F)ccc2cc(O)cc(-c3cc4nc(OC[C@@]56CCCN5C[C@H](F)C6)c(C(F)(F)F)c(N5C[C@H]6CC[C@@H](C5)N6)c4cn3)c12 [Example 195, 4-(4-((1R,5S)-3,8-diazabicyclo[3.2.1]octan-3-yl)-2-(((2R,7aS)-2-fluorotetrahydro-1H-pyrrolizin-7a(5H)-yl)methoxy)-3-(trifluoromethyl)-1,6-naphthyridin-7-yl)-5-ethynyl-6-fluoronaphthalen-2-ol] | > 2500
3 | C#Cc1c(F)ccc2cc(O)cc(-c3ncc4c(N5CC6CCC(C5)C6N)nc(OC[C@@]56CCCN5C[C@H](F)C6)nc4c3F)c12 (stereo partly drawn) [Example 63, 4-(4-((1R,5S,8R)-8-amino-3-azabicyclo [3.2.1]octan-3-yl)-8-fluoro-2-(((2R,7aS)-2-fluorotetrahydro-1H-pyrrolizin-7a(5H)-yl)methoxy)pyrido[4,3-d]pyrimidin-7-yl)-5-ethynyl-6-fluoronaphthalen-2-ol] | 1580
4 | CC1OCCc2cc(O)cc(C3=C(F)c4nc(OC[C@@]56CCCN5C[C@H](F)C6)nc(N5C[C@H]6CC[C@@H](C5)N6)c4C4=NCCN43)c21 (stereo partly drawn) [Example 410, 8-(10-((1R,5S)-3,8-diazabicyclo[3.2.1]octan-3-yl)-6-fluoro-8-(((2R,7aS)-2-fluorotetrahydro-1H-pyrrolizin-7a(5H)-yl)methoxy)-2,3-dihydroimidazo[1′,2′:1,2]pyrido[4,3-d]pyrimidin-5-yl)-1-methylisochroman-6-ol] | 75
5 | CCC1CCc2cc(O)cc(-c3c4c(c5c(N6C[C@H]7CC[C@@H](C6)N7)nc(OC[C@@]67CCCN6C[C@H](F)C7)nc5c3F)CCC4)c21 (stereo partly drawn) [Example 381, 7-(1-((1R,5S)-3,8-diazabicyclo[3.2.1]octan-3-yl)-5-fluoro-3-(((2R,7aS)-2-fluorotetrahydro-1H-pyrrolizin-7a(5H)-yl)methoxy)-8,9-dihydro-7H-cyclopenta[f]quinazolin-6-yl)-1-ethyl-2,3-dihydro-1H-inden-5-ol] | 75
6 | N#Cc1c(OC[C@@]23CCCN2C[C@H](F)C3)nc2c(F)c(-c3cc(O)cc4cccc(F)c34)ncc2c1N1C[C@H]2CC[C@@H](C1)N2 [Example 194, 4-((1R,5S)-3,8-diazabicyclo[3.2.1]octan-3-yl)-8-fluoro-7-(8-fluoro-3-hydroxynaphthalen-1-yl)-2-(((2R,7aS)-2-fluorotetrahydro-1H-pyrrolizin-7a(5H)-yl)methoxy)-1,6-naphthyridine-3-carbonitrile] | 150
7 | C#Cc1c(F)ccc2cc(O)cc(-c3ncc4c(N5CC6CCC(C5)C6O)nc(OC[C@@]56CCCN5C[C@H](F)C6)nc4c3F)c12 (stereo partly drawn) [Example 60, (1R,5S,8R)-3-(7-(8-ethynyl-7-fluoro-3-hydroxynaphthalen-1-yl)-8-fluoro-2-(((2R,7aS)-2-fluorotetrahydro-1H-pyrrolizin-7a(5H)-yl)methoxy)pyrido[4,3-d]pyrimidin-4-yl)-3-azabicyclo[3.2.1]octan-8-ol] | > 2500
8 | CCC1CCc2cc(O)cc(-c3c(Cl)cc4c(N5C[C@H]6CC[C@@H](C5)N6)nc(OC[C@@]56CCCN5C[C@H](F)C6)nc4c3F)c21 (stereo partly drawn) [Example 302, 7-(4-((1R,5S)-3,8-diazabicyclo[3.2.1]octan-3-yl)-6-chloro-8-fluoro-2-(((2R,7aS)-2-fluorotetrahydro-1H-pyrrolizin-7a(5H)-yl)methoxy)quinazolin-7-yl)-1-ethyl-2,3-dihydro-1H-inden-5-ol] | 22
9 | CCc1c(F)ccc2cc(O)cc(-c3ccc4c(N5C[C@H]6CC[C@@H](C5)N6)nc(OCC5(CN6CCCC6)CC5)nc4c3F)c12 [Example 100, 4-(4-((1R,5S)-3,8-diazabicyclo[3.2.1]octan-3-yl)-8-fluoro-2-((1-(pyrrolidin-1-ylmethyl)cyclopropyl)methoxy)quinazolin-7-yl)-5-ethyl-6-fluoronaphthalen-2-ol] | 21
10 | C#Cc1c(F)ccc2cc(O)cc(-c3ccc4c(N5CC6CCCC(C5)N6)nc(OC[C@@]56CCCN5C[C@H](F)C6)nc4c3F)c12 [Example 105, 4-(4-(3,9-diazabicyclo [3.3.1]nonan-3-yl)-8-fluoro-2-(((2R,7aS)-2-fluorotetrahydro-1H-pyrrolizin-7a(5H)-yl)methoxy)quinazolin-7-yl)-5-ethynyl-6-fluoronaphthalen-2-ol] | 80
11 | Oc1cc2c(c(-c3ncc4c(N5C[C@H]6CC[C@@H](C5)N6)nc(OC[C@@]56CCCN5C[C@H](F)C6)nc4c3F)c1)C(C(F)F)CCC2 (stereo partly drawn) [Example 261, 4-(4-((1R,5S)-3,8-diazabicyclo[3.2.1]octan-3-yl)-8-fluoro-2-(((2R,7aS)-2-fluorotetrahydro-1H-pyrrolizin-7a(5H)-yl)methoxy)pyrido[4,3-d]pyrimidin-7-yl)-5-(difluoromethyl)-5,6,7,8-tetrahydronaphthalen-2-ol] | 1930
12 | C#Cc1c(F)ccc2cc(O)cc(-c3ncc4c(N5C[C@H]6CC[C@@H](C5)N6)nc(OC[C@@]56CCCN5C[C@H](F)C6)nc4c3OCC(F)(F)F)c12 [Example 333, 4-(4-((1R,5S)-3,8-diazabicyclo[3.2.1]octan-3-yl)-2-(((2R,7aS)-2-fluorotetrahydro-1H-pyrrolizin-7a(5H)-yl)methoxy)-8-(2,2,2-trifluoroethoxy)pyrido[4,3-d]pyrimidin-7-yl)-5-ethynyl-6-fluoronaphthalen-2-ol] | 455
13 | CCn1cnc2cc(O)cc(-c3ncc4c(N5C[C@H]6CC[C@@H](C5)N6)nc(OC[C@@]56CCCN5C[C@H](F)C6)nc4c3F)c21 [Example 278, 7-(4-((1R,5S)-3,8-diazabicyclo[3.2.1]octan-3-yl)-8-fluoro-2-(((2R,7aS)-2-fluorotetrahydro-1H-pyrrolizin-7a(5H)-yl)methoxy)pyrido[4,3-d]pyrimidin-7-yl)-1-ethyl-1H-benzo[d]imidazol-5-ol] | > 10000
14 | C#Cc1c(F)ccc2cc(O)cc(-c3ccc4c(N5C[C@H]6CC[C@@H](C5)N6)nc(OC[C@@]56CCCN5C[C@H](F)C6)nc4c3F)c12 [Example 91, 4-(4-((1R,5S)-3,8-diazabicyclo[3.2.1]octan-3-yl)-8-fluoro-2-(((2R,7aS)-2-fluorotetrahydro-1H-pyrrolizin-7a(5H)-yl)methoxy)quinazolin-7-yl)-5-ethynyl-6-fluoronaphthalen-2-ol] | 1.3
15 | O=S1(=O)[C@@H]2CC[C@H]1CN(c1nc(OC[C@@]34CCCN3C[C@H](F)C4)nc3c(F)c(-c4cc(O)cc5ccc(F)c(F)c45)ncc13)C2 [Example 29, (1R,5S)-3-(7-(7,8-difluoro-3-hydroxynaphthalen-1-yl)-8-fluoro-2-(((2R,7aS)-2-fluorotetrahydro-1H-pyrrolizin-7a(5H)-yl)methoxy)pyrido[4,3-d]pyrimidin-4-yl)-8-thia-3-azabicyclo [3.2.1]octane 8,8-dioxide] | > 2500

Source: patent US20240300980A1, “HETEROCYCLIC COMPOUNDS AS KRAS INHIBITOR, AND PREPARATION THEREFOR AND USE THEREOF IN TREATMENT” (SHANGHAI KECHOW PHARMA, INC., priority 2021, published 2024)
